# Measured values as given in patent US7618990B2, “Oxazolidone derivatives as PR modulators” (Wyeth, priority 2006, dated 2009).
# Tested on: alkaline phosphatase activity in T47D cells
# Test: Effects of progestins and antiprogestins on alkaline phosphatase activity in T47D cells (antagonist mode)
# Format: cell-based
# Settings: Homo sapiens, % inhibition at 30 nM, in the presence of 1 nM progesterone, read-out: T47D Alkaline Phosphatase Activity IC50 (nM) or % inhibition
# Procedure: (1) Effects of Progestins and Antiprogestins on Alkaline Phosphatase Activity in T47D Cells
# PURPOSE: To identify progestins or antiprogestins by determining a compound's effect on alkaline phosphatase activity in T47D cells.
# Culture Medium: • DMEM:F12 (1:1) (GIBCO, BRL) supplemented with 5% (v/v) charcoal stripped fetal bovine serum (not heat-inactivated), 100 U/mL penicillin, 100 μg/mL streptomycin, and 2 mM the GlutaMax™ reagent (GIBCO, BRL).
# Alkaline Phosphatase Assay Buffer: • I. 0.1M Tris-HCl, pH 9.8, containing 0.2% the Triton® X-100 reagent • II. 0.1M Tris-HCl, pH 9.8, containing 4 mM p-nitrophenyl phosphate (Sigma). B. Cell Culture and Treatment:
# Frozen T47D cells were thawed in a 37° C. water bath and diluted to 280,000 cells/mL in culture medium. To each well in a 96-well plate (Falcon, Becton Dickinson Labware), 180 μL of diluted cell suspension was added.
# Twenty μL of reference or test compounds diluted in the culture medium was then added to each well. When testing for progestin antagonist activity, reference antiprogestins or test compounds were added in the presence of 1 nM progesterone. The cells were incubated at 37° C. in a 5% CO2/humidified atmosphere for 24 h.
# NOTE: For high throughput screening, one concentration of each compound was tested at 0.3 μg/mL. Based on an average molecular weight of 300 g/mol for the compounds in the library, the concentration was approximately 1 μM. Subsequently, active compounds were tested in dose response assays to determine EC50 and IC50. C. Alkaline Phosphatase Enzyme Assay:
# At the end of treatment, the medium was removed from the plate. Fifty μL of assay buffer I was added to each well. The plates were shaken in a titer plate shaker for 15 min. Then 150 μL of assay buffer II was added to each well. Optical density measurements were taken at 5 min intervals for 30 min at a test wavelength of 405 nm.
# For reference and test compounds, a dose response curve was generated for dose (X-axis) vs. the rate of enzyme reaction (slope) (Y-axis). Square root-transformed data was used for analysis of variance and nonlinear dose response curve fitting for both agonist and antagonist modes. Huber weighting was used to down-weight the effects of outliers. EC50 or IC50 values were calculated from the retransformed values. JMP software (SAS Institute, Inc.) was used for both one-way analysis of variance and non-linear dose response analysis in both single dose and dose response studies.
# Progesterone and trimegestone were reference progestins and RU486 was the reference antiprogestin. All reference compounds were run in full dose response curves and the EC50 and IC50 values were calculated.
row,SMILES,inhibition at 0.03 µM [%]
1,"CC1(C)COC(=O)N1c1nc(-c2ccc(Cl)cc2)cs1 [Example 114, 3-[4-(4-Chlorophenyl)-1,3-thiazol-2-yl]-4,4-dimethyl-1,3-oxazolidin-2-one]",53

# Same assay, conditions: Homo sapiens, % inhibition at 3000 nM, in the presence of 1 nM progesterone, read-out: T47D Alkaline Phosphatase Activity IC50 (nM) or % inhibition
row,SMILES,inhibition at 3 µM [%]
1,"O=C1OC[C@H](COCc2ccccc2)N1c1nc(-c2ccc(Br)cc2)cs1 [Example 91, (4S)-4-[(benzyloxy)methyl]-3-[4-(4-bromophenyl)-1,3-thiazol-2-yl]-1,3-oxazolidin-2-one]",63
2,"CC1(C)COC(=O)N1c1nc(-c2ccc(C#N)cc2)co1 [Example 92, 4-[2-(4,4-dimethyl-2-oxo-1,3-oxazolidin-3-yl)-1,3-oxazol-4-yl]benzonitrile]",76
3,"CCS(=O)(=O)c1cccc(-c2csc(N3C(=O)OCC3(C)C)n2)c1 [Example 102, 3-{4-[3-(Ethylsulfonyl)phenyl]-1,3-thiazol-2-yl}-4,4-dimethyl-1,3-oxazolidin-2-one]",27
4,"CC1(C)COC(=O)N1c1nc(-c2ccoc2)cs1 [Example 104, 3-[4-(3-Furyl)-1,3-thiazol-2-yl]-4,4-dimethyl-1,3-oxazolidin-2-one]",94

# Same assay, conditions: Homo sapiens, in the presence of 1 nM progesterone, 24 h, read-out: T47D Alkaline Phosphatase Activity IC50 (nM) or % inhibition
row,SMILES,IC50 [nM]
1,"N#Cc1ccc(-c2csc(N3C(=O)OCC34CCC4)n2)cc1 [Example 27, 4-[2-(6-Oxo-7-oxa-5-azaspiro[3.4]oct-5-yl)-1,3-thiazol-4-yl]benzonitrile]",17.1
2,"CN1CCN(c2nc(-c3ccc(Br)cc3)cs2)C1=O [Example 76, 1-[4-(4-Bromophenyl)-1,3-thiazol-2-yl]-3-methylimidazolidin-2-one]",733
3,"CC1(C)COC(=S)N1c1nc(-c2ccc(C#N)cc2)cs1 [Example 82, 4-[2-(4,4-Dimethyl-2-thioxo-1,3-oxazolidin-3-yl)-1,3-thiazol-4-yl]benzonitrile]",6.4
4,"CN1CC(C)(C)N(c2nc(-c3ccc(C#N)cc3)cs2)C1=O [Example 83, 4-[2-(3,5,5-Trimethyl-2-oxoimidazolidin-1-yl)-1,3-thiazol-4-yl]benzonitrile]",35.4
5,"CC1(C)CN(Cc2ccccc2)C(=O)N1c1nc(-c2ccc(C#N)cc2)cs1 [Example 84, 4-[2-(3-Benzyl-5,5-dimethyl-2-oxoimidazolidin-1-yl)-1,3-thiazol-4-yl]benzonitrile]",77.9
6,"CC1(C)COC(=O)N1c1nc(-c2ccc(C(N)=NO)cc2)cs1 [Example 85, 4-[2-(4,4-Dimethyl-2-oxo-1,3-oxazolidin-3-yl)-1,3-thiazol-4-yl]-N′-hydroxybenzene carboximidamide]",729
7,"CCC1(CC)COC(=O)N1c1nc2c(s1)CCc1cc(C#N)ccc1-2 [Example 86, 2-(4,4-Diethyl-2-oxo-1,3-oxazolidin-3-yl)-4,5-dihydronaphtho[1,2-d][1,3]thiazole-7-carbonitrile]",5
8,"CC1(C)COC(=O)N1c1nc(-c2ccc(C#N)cc2)c(Cl)s1 [Example 90, 4-[5-Chloro-2-(4,4-dimethyl-2-oxo-1,3-oxazolidin-3-yl)-1,3-thiazol-4-yl]benzonitrile]",43.5
9,"CC1(C)COC(=O)N1c1nc(-c2ccc(Br)cc2)ns1 [Example 93, 3-[3-(4-Bromophenyl)-1,2,4-thiadiazol-5-yl]-4,4-dimethyl-1,3-oxazolidin-2-one]",135
10,"CC1(C)COC(=O)N1c1nc(-c2ccc(C#N)cc2)ns1 [Example 94, 4-[5-(4,4-dimethyl-2-oxo-1,3-oxazolidin-3-yl)-1,2,4-thiadiazol-3-yl]benzonitrile]",146
11,"CC1(C)COC(=O)N1c1nc(-c2ccc(C(F)(F)F)cc2)cs1 [Example 95, 4,4-Dimethyl-3-{4-[4-(trifluoromethyl)phenyl]-1,3-thiazol-2-yl}-1,3-oxazolidin-2-one]",108
12,"CC1(C)COC(=O)N1c1nc(-c2cccc(C(F)(F)F)c2)cs1 [Example 96, 4,4-Dimethyl-3-{4-[3-(trifluoromethyl)phenyl]-1,3-thiazol-2-yl}-1,3-oxazolidin-2-one]",328
13,"CC1(C)COC(=O)N1c1nc(-c2ccc(OC(F)(F)F)cc2)cs1 [Example 97, 4,4-Dimethyl-3-{4-[4-(trifluoromethoxy)phenyl]-1,3-thiazol-2-yl}-1,3-oxazolidin-2-one]",285
14,"COc1ccc(-c2csc(N3C(=O)OCC3(C)C)n2)cc1 [Example 98, 3-[4-(4-Methoxyphenyl)-1,3-thiazol-2-yl]-4,4-dimethyl-1,3-oxazolidin-2-one]",191
15,"COc1cccc(-c2csc(N3C(=O)OCC3(C)C)n2)c1 [Example 99, 3-[4-(3-Methoxyphenyl)-1,3-thiazol-2-yl]-4,4-dimethyl-1,3-oxazolidin-2-one]",64.6
16,"COc1ccccc1-c1csc(N2C(=O)OCC2(C)C)n1 [Example 100, 3-[4-(2-Methoxyphenyl)-1,3-thiazol-2-yl]-4,4-dimethyl-1,3-oxazolidin-2-one]",854
17,"CC1(C)COC(=O)N1c1nc(-c2c(F)cc(F)cc2F)cs1 [Example 101, 4,4-Dimethyl-3-[4-(2,4,6-trifluorophenyl)-1,3-thiazol-2-yl]-1,3-oxazolidin-2-one]",536
18,"CC1(C)COC(=O)N1c1nc(-c2ccc(CC#N)cc2)cs1 [Example 103, {4-[2-(4,4-Dimethyl-2-oxo-1,3-oxazolidin-3-yl)-1,3-thiazol-4-yl]phenyl}acetonitrile]",262
19,"CC1(C)COC(=O)N1c1nc(-c2ccc3[nH]ccc3c2)cs1 [Example 105, 3-[4-(1H-Indol-5-yl)-1,3-thiazol-2-yl]-4,4-dimethyl-1,3-oxazolidin-2-one]",110
20,"CC(=O)c1ccc(-c2csc(N3C(=O)OCC3(C)C)n2)cc1 [Example 106, 3-[4-(4-Acetylphenyl)-1,3-thiazol-2-yl]-4,4-dimethyl-1,3-oxazolidin-2-one]",498
21,"CC(=O)c1cccc(-c2csc(N3C(=O)OCC3(C)C)n2)c1 [Example 107, 3-[4-(3-Acetylphenyl)-1,3-thiazol-2-yl]-4,4-dimethyl-1,3-oxazolidin-2-one]",83.7
22,"COc1ccc(-c2csc(N3C(=O)OCC3(C)C)n2)cc1OC [Example 108, 3-[4-(3,4-Dimethoxyphenyl)-1,3-thiazol-2-yl]-4,4-dimethyl-1,3-oxazolidin-2-one]",823
23,"CC1(C)COC(=O)N1c1nc(-c2ccc(Cl)c(F)c2)cs1 [Example 109, 3-[4-(4-Chloro-3-fluorophenyl)-1,3-thiazol-2-yl]-4,4-dimethyl-1,3-oxazolidin-2-one]",28.8
24,"CC1(C)OCCN1c1nc(-c2ccc(C#N)cc2)cs1 [Example 110, 4-[2-(2,2-Dimethyl-1,3-oxazolidin-3-yl)-1,3-thiazol-4-yl]benzonitrile]",269
25,"N#Cc1ccc(-c2csc(N3CCOC3=O)c2)cc1 [Example 112, 4-[5-(2-Oxo-1,3-oxazolidin-3-yl)-3-thienyl]benzonitrile]",480
26,"CC1(C)COC(=O)N1c1nc(-c2ccc(F)cc2)cs1 [Example 115, 3-[4-(4-Fluorophenyl)-1,3-thiazol-2-yl]-4,4-dimethyl-1,3-oxazolidin-2-one]",72.2
27,"CC1(C)COC(=O)N1c1nc(-c2cc(Cl)cc(Cl)c2)cs1 [Example 116, 3-[4-(3,5-Dichlorophenyl)-1,3-thiazol-2-yl]-4,4-dimethyl-1,3-oxazolidin-2-one]",461
28,"CC1(C)COC(=O)N1c1nc(-c2ccc(F)c(Cl)c2)cs1 [Example 117, 3-[4-(3-Chloro-4-fluorophenyl)-1,3-thiazol-2-yl]-4,4-dimethyl-1,3-oxazolidin-2-one]",50.4
